pIC50: −log10 of the molar value. Counter-ions that a name gives are not always drawn.
Experiments:
[1] = biological target: DGKα (Homo sapiens, UniProt P23743); test: DGKα biochemical assay (ADP-Glo); conditions: read-out: DGK α IC50
Method in brief: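 ADP-Glo kinase assay using OAG/PS (1:2) lipid substrate, sonicated, in HEPES pH 7.0 buffer with MgCl2, CaCl2, DTT, BSA, Triton X-100. Enzyme preincubated with compound 30 min at RT; substrate with ATP (DGKα: 400 μM) added, 45 min RT. Luminescence read; % inhibition vs DMSO and no-enzyme controls.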

[2] = biological target: T1, DGKζ (Homo sapiens, UniProt Q13574); test: DGKζ biochemical assay (ADP-Glo); conditions: read-out: DGK ζ IC50
T1 construct: purchased Carna 12-110
T1 sequence (Q13574 1-929 isoform Q13574-4): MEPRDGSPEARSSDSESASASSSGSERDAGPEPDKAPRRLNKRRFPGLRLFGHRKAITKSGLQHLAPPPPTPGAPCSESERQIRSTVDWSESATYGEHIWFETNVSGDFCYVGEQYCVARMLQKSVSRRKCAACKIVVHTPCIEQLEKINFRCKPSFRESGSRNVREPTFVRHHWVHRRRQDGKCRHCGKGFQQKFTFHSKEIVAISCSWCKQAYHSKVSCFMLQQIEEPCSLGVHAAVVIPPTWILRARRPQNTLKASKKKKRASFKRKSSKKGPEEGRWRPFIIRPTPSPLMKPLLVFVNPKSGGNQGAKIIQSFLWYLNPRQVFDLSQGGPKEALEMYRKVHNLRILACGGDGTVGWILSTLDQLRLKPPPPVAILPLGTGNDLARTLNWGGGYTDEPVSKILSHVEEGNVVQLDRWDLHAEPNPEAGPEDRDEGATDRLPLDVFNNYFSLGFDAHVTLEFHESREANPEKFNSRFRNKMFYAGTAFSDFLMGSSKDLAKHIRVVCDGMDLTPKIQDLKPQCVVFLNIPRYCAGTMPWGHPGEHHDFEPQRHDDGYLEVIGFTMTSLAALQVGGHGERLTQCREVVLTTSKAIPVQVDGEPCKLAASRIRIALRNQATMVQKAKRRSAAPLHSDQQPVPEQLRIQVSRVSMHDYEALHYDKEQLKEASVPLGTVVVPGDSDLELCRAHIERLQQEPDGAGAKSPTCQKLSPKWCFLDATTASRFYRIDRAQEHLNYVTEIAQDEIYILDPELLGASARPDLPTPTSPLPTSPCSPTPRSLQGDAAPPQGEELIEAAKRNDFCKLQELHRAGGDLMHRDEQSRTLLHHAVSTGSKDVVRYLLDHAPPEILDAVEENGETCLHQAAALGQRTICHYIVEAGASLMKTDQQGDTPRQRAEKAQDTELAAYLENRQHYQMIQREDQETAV

Sequence of DGKα (P23743 whole entry): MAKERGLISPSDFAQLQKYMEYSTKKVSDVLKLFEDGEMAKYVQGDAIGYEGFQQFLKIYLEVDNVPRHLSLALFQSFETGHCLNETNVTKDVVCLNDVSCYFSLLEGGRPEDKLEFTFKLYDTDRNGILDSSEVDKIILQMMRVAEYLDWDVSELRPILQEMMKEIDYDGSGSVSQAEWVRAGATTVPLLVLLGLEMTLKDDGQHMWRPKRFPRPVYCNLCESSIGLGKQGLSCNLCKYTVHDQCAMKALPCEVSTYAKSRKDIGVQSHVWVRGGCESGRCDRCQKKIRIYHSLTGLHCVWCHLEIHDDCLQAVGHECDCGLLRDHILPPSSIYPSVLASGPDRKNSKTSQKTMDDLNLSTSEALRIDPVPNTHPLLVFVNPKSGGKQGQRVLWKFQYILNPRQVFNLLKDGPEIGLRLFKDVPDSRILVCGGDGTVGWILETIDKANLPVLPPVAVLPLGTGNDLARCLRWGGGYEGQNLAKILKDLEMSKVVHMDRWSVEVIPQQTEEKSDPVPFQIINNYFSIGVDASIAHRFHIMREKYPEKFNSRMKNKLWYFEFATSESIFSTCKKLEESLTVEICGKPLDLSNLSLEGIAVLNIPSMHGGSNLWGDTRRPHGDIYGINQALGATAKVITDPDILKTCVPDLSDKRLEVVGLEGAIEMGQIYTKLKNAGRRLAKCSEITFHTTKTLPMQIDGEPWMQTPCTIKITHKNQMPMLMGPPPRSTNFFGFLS

| SMILES | pIC50 [1] | pIC50 [2] |
| --- | --- | --- |
| Cn1c(=O)c(C#N)c(N(C)[C@H]2CC[C@@H](N(CC3CCC3)c3ccc4c(c3)OCCO4)CC2)c2nc(C#N)ccc21 [Example 170, cis-8-((4-((cyclobutylmethyl)(2,3-dihydrobenzo[b] [1,4]dioxin-6-yl)amino)cyclohexyl)(methyl)amino)-5-methyl-6-oxo-5,6-dihydro-1,5-naphthyridine-2,7-dicarbonitrile] | 7.00 to 8.00 | 7.00 to 8.00 |
| Cn1c(=O)c(C#N)c(N(C)[C@H]2CC[C@H](N(CC3CCC3)c3ccc4c(c3)OCCO4)CC2)c2nc(C#N)ccc21 [Example 171, trans-8-((4-((cyclobutylmethyl)(2,3-dihydrobenzo[b] [1,4]dioxin-6-yl)amino)cyclohexyl)(methyl)amino)-5-methyl-6-oxo-5,6-dihydro-1,5-naphthyridine-2,7-dicarbonitrile] | 6.00 to 7.00 | 6.00 to 7.00 |
| Cn1c(=O)c(C#N)c(N(C)[C@H]2CC[C@H](N(CC3CCC3)c3ccc(CCN4CCOCC4)cc3)CC2)c2nc(C#N)ccc21 [Example 172, trans-8-((4-((cyclobutylmethyl)(4-(2-morpholinoethyl)phenyl)amino)cyclohexyl)(methyl)amino)-5-methyl-6-oxo-5,6-dihydro-1,5-naphthyridine-2,7-dicarbonitrile] | ≤ 6.00 | ≤ 6.00 |
| Cc1cc(F)ccc1N(CC1COCCO1)[C@H]1CC[C@H](N(C)c2c(C#N)c(=O)n(C)c3ccc(C#N)nc23)CC1 (stereo partly drawn) [Example 173, trans-8-((4-(((1,4-dioxan-2-yl)methyl)(4-fluoro-2-methylphenyl)amino)cyclohexyl)(methyl)amino)-5-methyl-6-oxo-5,6-dihydro-1,5-naphthyridine-2,7-dicarbonitrile] | 6.00 to 7.00 | 6.00 to 7.00 |
| Cn1c(=O)c(C#N)c(N(C)[C@H]2CC[C@H](N(CC3CC3)c3ccc(F)c(CN4CCOCC4)c3)CC2)c2nc(C#N)ccc21 [Example 174, trans-8-((-4-((cyclopropylmethyl)(4-fluoro-3-(morpholinomethyl)phenyl)amino)cyclohexyl) (methyl)amino)-5-methyl-6-oxo-5,6-dihydro-1,5-naphthyridine-2,7-dicarbonitrile] | 6.00 to 7.00 | 6.00 to 7.00 |
| Cn1c(=O)cc(N(C)[C@H]2CC[C@@H](N(CC3CCC3)c3ccc(F)c(CN4CCOCC4)c3)CC2)c2nc(C#N)ccc21 [Example 175, cis-8-((-4-((cyclobutylmethyl)(4-fluoro-3-(morpholinomethyl)phenyl)amino)cyclohexyl) (methyl)amino)-5-methyl-6-oxo-5,6-dihydro-1,5-naphthyridine-2-carbonitrile] | 6.00 to 7.00 | 6.00 to 7.00 |
| CC(C)CN(c1ccnn1C)[C@H]1CC[C@H](N(C)c2c(C#N)c(=O)n(C)c3ccc(C#N)nc23)CC1 [Example 176, trans-8-((-4-(isobutyl(1-methyl-1H-pyrazol-5-yl)amino)cyclohexyl)(methyl)amino)-5-methyl-6-oxo-5,6-dihydro-1,5-naphthyridine-2,7-dicarbonitrile] | ≤ 6.00 | ≤ 6.00 |
| Cn1c(=O)c(C#N)c(N(C)[C@H]2CC[C@@H](N(CC3COCCO3)c3ccc4c(c3)OCO4)CC2)c2nc(C#N)ccc21 (stereo partly drawn) [Example 177, cis-8-((4-(((1,4-dioxan-2-yl)methyl)(benzo[d][1,3]dioxol-5-yl)amino)cyclohexyl)(methyl)amino)-5-methyl-6-oxo-5,6-dihydro-1,5-naphthyridine-2,7-dicarbonitrile] | > 8.00 | > 8.00 |
| Cc1cc(F)ccc1N(CC1CC(F)(F)C1)[C@H]1CC[C@H](N(C)c2c(C#N)c(=O)n(C)c3ccc(C#N)nc23)CC1 [Example 178, trans-8-((-4-(((3,3-difluorocyclobutyl)methyl)(4-fluoro-2-methylphenyl)amino)cyclohexyl)(methyl)amino)-5-methyl-6-oxo-5,6-dihydro-1,5-naphthyridine-2,7-dicarbonitrile] | 6.00 to 7.00 | 6.00 to 7.00 |
| Cn1c(=O)c(C#N)c(N(C)[C@H]2CC[C@H](N(CC3CCC3)c3ccc(F)cc3C(F)F)CC2)c2nc(C#N)ccc21 [Example 179, trans-8-((-4-((cyclobutylmethyl)(2-(difluoromethyl)-4-fluorophenyl)amino)cyclohexyl)(methyl)amino)-5-methyl-6-oxo-5,6-dihydro-1,5-naphthyridine-2,7-dicarbonitrile] | 7.00 to 8.00 | ≤ 6.00 |
| Cn1c(=O)c(C#N)c(N(C)[C@H]2CC[C@@H](N(CC3CCC3)c3ccc(F)cc3C(F)F)CC2)c2nc(C#N)ccc21 [Example 180, cis-8-((-4-((cyclobutylmethyl)(2-(difluoromethyl)-4-fluorophenyl)amino)cyclohexyl)(methyl)amino)-5-methyl-6-oxo-5,6-dihydro-1,5-naphthyridine-2,7-dicarbonitrile] | 6.00 to 7.00 | 6.00 to 7.00 |
| Cn1c(=O)cc(N(C)[C@H]2CC[C@@H](N(CC3COCCO3)c3ccc4c(c3)OCO4)CC2)c2nc(C#N)ccc21 (stereo partly drawn) [Example 181, cis-8-((4-(((1,4-dioxan-2-yl)methyl)(benzo[d][1,3]dioxol-5-yl)amino)cyclohexyl)(methyl)amino)-5-methyl-6-oxo-5,6-dihydro-1,5-naphthyridine-2-carbonitrile] | 7.00 to 8.00 | 6.00 to 7.00 |
| Cn1c(=O)c(C#N)c(N(C)[C@H]2CC[C@@H](N(CC3COCCO3)c3ccc4c(c3)OCCO4)CC2)c2nc(C#N)ccc21 (stereo partly drawn) [Example 182, cis-8-((4-(((1,4-dioxan-2-yl)methyl)(2,3-dihydrobenzo[b][1,4]dioxin-6-yl)amino)cyclohexyl) (methyl)amino)-5-methyl-6-oxo-5,6-dihydro-1,5-naphthyridine-2,7-dicarbonitrile] | ≤ 6.00 | > 8.00 |
| Cn1c(=O)cc(N(C)[C@H]2CC[C@@H](N(CC3COCCO3)c3ccc4c(c3)OCCO4)CC2)c2nc(C#N)ccc21 (stereo partly drawn) [Example 183, cis-8-((4-(((1,4-dioxan-2-yl)methyl)(2,3-dihydrobenzo[b][1,4]dioxin-6-yl)amino)cyclohexyl) (methyl)amino)-5-methyl-6-oxo-5,6-dihydro-1,5-naphthyridine-2-carbonitrile] | 6.00 to 7.00 | 6.00 to 7.00 |
| Cc1cc(F)ccc1N(CC1CC(F)(F)C1)[C@H]1CC[C@@H](N(C)c2cc(=O)n(C)c3ccc(C#N)nc23)CC1 [Example 184, cis-8-((-4-(((3,3-difluorocyclobutyl)methyl)(4-fluoro-2-methylphenyl)amino)cyclohexyl)(methyl)amino)-5-methyl-6-oxo-5,6-dihydro-1,5-naphthyridine-2-carbonitrile] | 6.00 to 7.00 | 7.00 to 8.00 |
| Cc1cc(F)ccc1N(CC1COCCN1C)[C@H]1CC[C@H](N(C)c2c(C#N)c(=O)n(C)c3ccc(C#N)nc23)CC1 (stereo partly drawn) [Example 185, trans-8-((-4-((4-fluoro-2-methylphenyl)((4-methylmorpholin-3-yl)methyl)amino)cyclohexyl) (methyl)amino)-5-methyl-6-oxo-5,6-dihydro-1,5-naphthyridine-2,7-dicarbonitrile] | 6.00 to 7.00 | 6.00 to 7.00 |
| Cc1cc(F)ccc1N(CC1CN(C)CCO1)[C@H]1CC[C@H](N(C)c2c(C#N)c(=O)n(C)c3ccc(C#N)nc23)CC1 (stereo partly drawn) [Example 186, trans-8-((-4-((4-fluoro-2-methylphenyl)((4-methylmorpholinium-2-yl)methyl)amino)cyclohexyl) (methyl)amino)-5-methyl-6-oxo-5,6-dihydro-1,5-naphthyridine-2,7-dicarbonitrile trifluoroacetate] | 6.00 to 7.00 | ≤ 6.00 |
| CN1C(=O)COc2ccc(N(CC3COCCO3)[C@H]3CC[C@@H](N(C)c4c(C#N)c(=O)n(C)c5ccc(C#N)nc45)CC3)cc21 (stereo partly drawn) [Example 187, cis-8-((4-(((1,4-dioxan-2-yl)methyl)(4-methyl-3-oxo-3,4-dihydro-2H-benzo[b][1,4]oxazin-6-yl)amino)cyclohexyl)(methyl)amino)-5-methyl-6-oxo-5,6-dihydro-1,5-naphthyridine-2,7-dicarbonitrile] | 6.00 to 7.00 | 6.00 to 7.00 |
| Cn1c(=O)cc(N(C)[C@H]2CC[C@@H](N(CC3COCCO3)c3ccc(F)c(OC(F)F)c3)CC2)c2nc(C#N)ccc21 (stereo partly drawn) [Example 188, cis-8-((-4-(((1,4-dioxan-2-yl)methyl)(3-(difluoromethoxy)-4-fluorophenyl)amino)cyclohexyl) (methyl)amino)-5-methyl-6-oxo-5,6-dihydro-1,5-naphthyridine-2-carbonitrile] | 6.00 to 7.00 | 6.00 to 7.00 |
| Cn1c(=O)cc(N(C)[C@H]2CC[C@@H](N(CC3CC3)c3ccc4c(c3)COC4)CC2)c2nc(C#N)ccc21 [Example 192, cis-8-((4-((cyclopropylmethyl)(1,3-dihydroisobenzofuran-5-yl)amino)cyclohexyl) (methyl)amino)-5-methyl-6-oxo-5,6-dihydro-1,5-naphthyridine-2-carbonitrile] | 7.00 to 8.00 | 6.00 to 7.00 |
| Cn1c(=O)c(C#N)c(N(C)[C@H]2CC[C@@H](N(CC3CC3)c3ccc4c(c3)COC4)CC2)c2nc(C#N)ccc21 [Example 193, cis-8-((4-((cyclopropylmethyl)(1,3-dihydroisobenzofuran-5-yl)amino)cyclohexyl) (methyl)amino)-5-methyl-6-oxo-5,6-dihydro-1,5-naphthyridine-2,7-dicarbonitrile] | ≤ 6.00 | ≤ 6.00 |
| Cn1c(=O)cc(N(C)[C@H]2CC[C@@H](N(CC(C)(C)CO)c3ccc(F)cc3)CC2)c2nc(C#N)ccc21 [Example 194, cis-8-((-4-((4-fluorophenyl)(3-hydroxy-2,2-dimethylpropyl)amino)cyclohexyl)(methyl)amino)-5-methyl-6-oxo-5,6-dihydro-1,5-naphthyridine-2-carbonitrile] | 6.00 to 7.00 | ≤ 6.00 |

From patent US20230271954A1 (Gossamer Bio Services, Inc., priority 2020, published 2023)
